US20210205638A1, “PARATHYROID HORMONE AND REGENERATION OF DEGENERATIVE DISCS DISEASE” (THE JOHNS HOPKINS UNIVERSITY, priority 2017, published 2021)

Columns and labels:
β6 integrin promoter = assay: Chromatin immunoprecipitation of pCREB on β6 integrin promoter in NP cells; type: cell-based, mouse; conditions: ChIP, most distal CREB site (Primer 1)
Procedure: The ChIP assays were carried out using the Thermo Fisher ChIP Kit (catalog number: 26156). The crude homogenate from the NP cells was crosslinked with 1% formaldehyde at room temperature for 10 min. The reaction was stopped by adding glycine (0.25 M). After centrifugation, the pellet was collected and lysed in SDS lysis buffer containing protease inhibitor cocktail. The lysis was sonicated until the DNA was broken into fragments with a mean length of 200-1,000 bp. The samples were first pre-cleaned with protein G agarose and then subjected to immunoprecipitation overnight with […] of rabbit antibodies against pCREB (CST, 1:50) With […] of normal rabbit serum overnight at 4° C. The 10-20% of the sample for immunoprecipitation was used as an input (a positive control).

β6 integrin = assay: qRT-PCR of integrin mRNA in NP tissue of aged mice; type: in vivo, mouse; conditions: NP cells of the aged mice
Procedure: After protein extraction, specimen from the same group of mice were prepared for RNA extraction using TRIzol reagent (Invitogen) according to the manufacturer's instruction. The purity of RNA was tested by measuring the absorbance at 260 and 280 nm. For qRT-PCR, two micrograms of RNA was reverse transcribed into cDNA using the SuperScript firststrand synthesis system (Invitrogen) and analyzed with SYBR Green-Master Mix (Qiagen) in the thermal cycler with two sets of primers specific for each target gene. Relative expression was calculated for each gene by the 2^−ΔΔCT method, with GAPDH for normalization.

NP cells = assay: cAMP assay in NP cells (enzyme immunoassay); type: cell-based, mouse; conditions: PTH (1-34) 100 nmol
Procedure: Green fluorescent protein (GFP) labeled NP cells of notochordal origin were isolated from 15-day old Noto^Cre/+::ROSA26-lacZ^flox/flox male mice as previously described. The NP cells from 15-day old PTH1R^+/+ and PTH1R^−/−, IFT88^+/+ and IFT88^−/− male mice. Briefly, the cells were isolated from the NP region of IVDs in the spinal column from mid thoracic to lower lumbar region and digested initially with TrypLE Express (Gibco) for 30 minutes on shaker, followed by 0.25 mg/ml Collagense-P (Roche) for another […] at 37° C. The digested cells were washed twice with PBS, and cultured in α-MEM (Gibco) supplemented with 10% fetal calf serum (Atlanta Biologicals), and 1% penicillin—streptomycin (Mediatech) to 80-90% confluence at 37° C., 5% CO2 and 5% O2.
For cAMP assays, confluent cells were grown in 35-mm six-well plates starved overnight by incubation in serum-free α-MEM at 37° C. The cells were then treated with 100 nM human of human PTH (1-34; Bachem Calif., Inc.) for 1 h. Cellular cAMP was extracted and the concentration measured with the Biotrak enzyme immunoassay system (GE Healthare, Inc., Princeton, HJ). We determined the concentration of total and active TGF-β in the NP tissue using the ELISA Development Kit (R&D Systems) according to the manufacturer's instructions.

NP tissue = assay: iPTH in PTH1R KO mice: Western blot of NP tissue; type: in vivo, mouse
Procedure: The 11 month-old PTH1R^+/+ and PTH1R^−/− male mice were randomized into four groups: PTH1R^+/++PTH (1-34), PTH1R^+/++Vehicle, PTH1R^−/−+PTH (1-34) and PTH1R^−/−+Vehicle groups (n=8 per group). The 11 month-olds IFT88^+/+ and IFT88^−/− male mice were randomized into four groups: IFT88^+/++PTH (1-34), IFT88^+/++Vehicle, IFT88^−/−+PTH (1-34) and IFT88^−/−+Vehicle groups (n=8 per group). Mice were subcutaneously injected with either PTH (1-34) or vehicle (1 mM acetic acid in phosphate buffered saline (PBS) with equivalent volume of PTH) daily, 5 days per week, and all mice were sacrificed 4 weeks after treatment with PTH (1-34)/vehicle.
Western blot analyses were conducted on the protein lysates from in vitro cultured NP cells or NP tissues from mice at specific time points after PTH (1-34) treatment and human at different ages with lumbar disc degeneration. The protein extract was centrifuged, the concentration of supernatant evaluated by DC protein assay (Bio-Rad Laboratories), and then separated by SDS-PAGE and blotted on a polyvinylidene fluoride membrane (Bio-Rad Laboratories). Following incubation in specific antibodies, we detected proteins using an enhanced chemiluminescence kit (Amersham Biosciences). We used specific antibodies recognizing rabbit CTGF (CCN2) (Abcam, 1:1000), Aggrecan (ACAN) (Abcan, 1:1000), p-Smad2 (Cell Signaling Technology Inc., 1:1000), Smad2 (Cell Signaling Technology Inc., 1:1000), GAPDH (Cell Signaling Technology Inc., 1:1000), CREB (Abcam, 1:2500), pCREB (Abcam, 1:2500), PTH1R PRB-635P (Covance, 1:100), PTH1R PRB-640P (Covance, 1:500) and goat integrin β6 (Santa Cruz, 1:500) to examine the protein concentrations in the lysates. Co-immunoprecipitation analyses were conducted on the nuclear and cytoplasmic protein extraction using NE-PER Nuclear and Cytoplasmic Extraction Kit (Pierce Thermo Scientific, 78833) from in vitro cultured NP cells treated with PTH (1-34) or vehicle.

CC[C@H](C)[C@H](NC(=O)[C@H](CCC(=O)O)NC(=O)[C@H](CO)NC(=O)[C@@H](NC(=O)[C@@H](N)CO)C(C)C)C(=O)N[C@@H](CCC(N)=O)C(=O)N[C@@H](CC(C)C)C(=O)N[C@@H](CCSC)C(=O)N[C@@H](Cc1cnc[nH]1)C(=O)N[C@@H](CC(N)=O)C(=O)N[C@@H](CC(C)C)C(=O)NCC(=O)N[C@@H](CCCCN)C(=O)N[C@@H](Cc1cnc[nH]1)C(=O)N[C@@H](CC(C)C)C(=O)N[C@@H](CC(N)=O)C(=O)N[C@@H](CO)C(=O)N[C@@H](CCSC)C(=O)N[C@@H](CCC(=O)O)C(=O)N[C@@H](CCCN=C(N)N)C(=O)N[C@H](C(=O)N[C@@H](CCC(=O)O)C(=O)N[C@@H](Cc1c[nH]c2ccccc12)C(=O)N[C@@H](CC(C)C)C(=O)N[C@@H](CCCN=C(N)N)C(=O)N[C@@H](CCCCN)C(=O)N[C@@H](CCCCN)C(=O)N[C@@H](CC(C)C)C(=O)N[C@@H](CCC(N)=O)C(=O)N[C@@H](CC(=O)O)C(=O)N[C@H](C(=O)N[C@@H](Cc1cnc[nH]1)C(=O)N[C@@H](CC(N)=O)C(=O)N[C@@H](Cc1ccccc1)C(=O)O)C(C)C)C(C)C [PTH (1-34), teriparatide]
binding of pCREB to the β6 integrin promoter (β6 integrin promoter): inducing direct binding of pCREB
mRNA expression of β6 integrin (β6 integrin): specifically induced
time at which cAMP level in NP cells peaked (NP cells): 30 min
PTH induced increase in level of ACAN (NP tissue): diminished
PTH induced increase in level of CCN2 (NP tissue): diminished
PTH induced increase in level of pSmad2 (NP tissue): diminished
